In patent US10815210B2, “Benzocyclobutane derivatives useful as dual SGLT1 / SGLT2 modulators” (Janssen Pharmaceutica NV, priority 2016, dated 2020):

Legend:
human SGLT1 = molecular target: T1, human SGLT1 (Homo sapiens, UniProt P13866); test: SGLT1 assay: Na-dependent 14C-AMG uptake in CHO-K1 cells stably expressing human SGLT1; assay type: cell-based; details: for IC50: 500 μM AMG, 2 hours at 37° C.
T1 construct: expressed in transfected cells; host or cells: CHO-K1
T1 sequence (P13866 1-664): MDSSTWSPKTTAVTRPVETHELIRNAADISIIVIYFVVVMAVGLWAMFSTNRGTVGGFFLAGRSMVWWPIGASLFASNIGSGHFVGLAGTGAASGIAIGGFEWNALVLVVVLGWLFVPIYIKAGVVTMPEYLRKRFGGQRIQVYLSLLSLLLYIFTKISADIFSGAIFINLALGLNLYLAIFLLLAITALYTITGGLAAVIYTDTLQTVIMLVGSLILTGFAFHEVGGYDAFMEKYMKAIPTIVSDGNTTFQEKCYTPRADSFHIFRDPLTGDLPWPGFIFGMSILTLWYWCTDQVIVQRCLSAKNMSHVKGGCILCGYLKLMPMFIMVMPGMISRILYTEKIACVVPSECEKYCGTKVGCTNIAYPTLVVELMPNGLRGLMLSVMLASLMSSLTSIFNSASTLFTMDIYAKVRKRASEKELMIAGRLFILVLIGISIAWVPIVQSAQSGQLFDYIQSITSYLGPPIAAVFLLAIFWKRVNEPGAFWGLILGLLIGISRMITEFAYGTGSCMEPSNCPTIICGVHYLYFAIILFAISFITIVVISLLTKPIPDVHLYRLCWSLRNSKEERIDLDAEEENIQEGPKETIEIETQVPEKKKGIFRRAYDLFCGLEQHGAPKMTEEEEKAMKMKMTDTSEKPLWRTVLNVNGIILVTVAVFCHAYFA
Description: (§1) SGLT1 and SGLT2 were cloned in form of cDNA from human small intestine (Genbank M24847), and from human kidney (Genbank M95549), respectively. Subsequently, each full cDNA was subcloned into pcDNA with each construct's integrity verified through follow-on sequencing. To generate CHO-K1 cells that stably express human SGLT1 or human SGLT2, CHO-K1 cells were transfected using DMRIE-C reagent (Life Technologies, Gaithersburg, Md.). Transfected cells were then selected in the presence of 500 μg/ml of the Geneticin (G418 Cellgro Catalog No. 30234-CI)
(§2) Individual clones were then characterized using the following cell-based assay for sodium-dependent glucose transport:
(§3) Inhibition of SGLT1 and SGLT2 activity was assessed in CHO K1 cells stably expressing either human SGLT1 or SGLT2, using the SGLT specific glucose analog methyl-glucopyranoside (Sigma Catalog No. M-9376). Cells were plated (45,000 cells/well) in white wall 96-well plates (COSTAR, Cat#3903) for 24 hours in growth medium, then a final concentration of 10 mM Na-Butyrate (ALDRICH Cat#30341-0) was added. The cells were incubated for 24 hours. On the day of the assay, cells were rinsed and treated with test compounds (at concentrations of 0.001 μM to 10 μM) in assay buffer (50 mM HEPES, 20 mM Tris base, 5 mM KCl, 1 mM MgCl2, 1 mM CaCl2 and 137 mM NaCl, pH 7.4) for 10 minutes. Cells were then incubated with ^14C-a-methyl-d-glucopyranoside (AMG, Amersham Catalog No. CFB 76), using 0.07 μCi per well in 500 μM AMG final concentration. The cells were incubated for 2 hours at 37° C. with 5% CO2 and washed two times with ice-cold Phosphate Buffer Solution (Cellgro Catalog No. 21030-CV). The cells were then solubilized by adding 60 μl of MICROSCINT™20 and the Na-dependent ^14C-AMG uptake was quantified by measuring radioactivity. Plates were counted in a TopCount (Packard, Meriden, Conn.)

human SGLT2 = molecular target: T2, human SGLT2 (Homo sapiens, UniProt P31639); test: SGLT2 assay: Na-dependent 14C-AMG uptake in CHO-K1 cells stably expressing human SGLT2; assay type: cell-based; details: for IC50: 500 μM AMG, 2 hours at 37° C.
T2 construct: expressed in transfected cells; host or cells: CHO-K1
T2 sequence (P31639 1-672): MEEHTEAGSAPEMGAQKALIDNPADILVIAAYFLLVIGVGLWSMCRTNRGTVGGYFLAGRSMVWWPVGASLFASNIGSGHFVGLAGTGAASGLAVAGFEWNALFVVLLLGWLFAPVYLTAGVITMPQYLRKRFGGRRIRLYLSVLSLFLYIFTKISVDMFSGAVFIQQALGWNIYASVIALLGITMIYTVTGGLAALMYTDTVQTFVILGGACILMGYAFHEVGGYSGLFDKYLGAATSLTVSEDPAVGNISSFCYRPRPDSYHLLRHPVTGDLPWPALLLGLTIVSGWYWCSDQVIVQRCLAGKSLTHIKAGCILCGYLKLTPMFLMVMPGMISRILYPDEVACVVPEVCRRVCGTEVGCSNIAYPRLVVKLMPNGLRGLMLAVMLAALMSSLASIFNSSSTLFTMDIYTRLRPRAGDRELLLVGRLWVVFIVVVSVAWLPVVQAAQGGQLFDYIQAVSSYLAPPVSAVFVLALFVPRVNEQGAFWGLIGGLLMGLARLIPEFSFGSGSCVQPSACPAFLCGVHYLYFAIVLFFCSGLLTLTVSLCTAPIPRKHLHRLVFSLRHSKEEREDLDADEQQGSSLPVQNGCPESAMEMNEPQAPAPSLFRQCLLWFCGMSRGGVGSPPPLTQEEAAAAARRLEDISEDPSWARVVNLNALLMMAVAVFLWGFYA
Description: as §1, §2, §3

Compound	IC50 (human SGLT1) [nM]	IC50 (human SGLT2) [nM]	inhibition at 0.3 µM (human SGLT1) [%]	inhibition at 0.03 µM (human SGLT2) [%]
CCc1cc(OC)c([C@@H]2O[C@H](CO)[C@@H](O)[C@H](O)[C@H]2O)cc1Cc1ccc2c(c1)CC2 [Compound 13, (2S,3R,4R,5S,6R)-2-(5-((1,2-dihydrocyclobutabenzen-4-yl)methyl)-4-ethyl-2-methoxyphenyl)-6-(hydroxymethyl)-tetrahydro-2H-pyran-3,4,5-triol]	32	1		
CCc1ccc([C@@H]2O[C@H](CO)[C@@H](F)[C@H](O)[C@H]2O)cc1Cc1ccc2c(c1)CC2 [Compound 128]	47	8		
[2H]C([2H])(c1ccc2c(c1)CC2)c1cc([C@@H]2O[C@H](CO)[C@@H](O)[C@H](O)[C@H]2O)c(OC)cc1Cl [Compound 56, (2S,3R,4R,5S,6R)-2-(5-[bicyclo[4.2.0]octa-(6),2,4-trien-3-yl(dideuterium)methyl]-4-chloro-2-methoxyphenyl)-6-(hydroxymethyl)oxane-3,4,5-triol]	93	2		
Cc1cc(F)c([C@@H]2O[C@H](CO)[C@@H](O)[C@H](O)[C@H]2O)cc1Cc1ccc2c(c1)CC2 [Compound 29, (2S,3R,4R,5S,6R)-2-(5-[bicyclo[4.2.0]octa-1,3,5-trien-3-ylmethyl]-2-fluoro-4-methylphenyl)-6-(hydroxymethyl)oxane-3,4,5-triol]	92	3		
Cc1c(Cc2ccc3c(c2)CC3)ccc(O)c1[C@@H]1O[C@H](CO)[C@@H](O)[C@H](O)[C@H]1O [Compound 28, (2S,3R,4R,5S,6R)-2-(3-((1,2-dihydrocyclobutabenzen-4-yl)methyl)-6-hydroxy-2-methylphenyl)-6-(hydroxymethyl)-tetrahydro-2H-pyran-3,4,5-triol]			50	40
OC[C@H]1O[C@@H](c2ccc(Cl)c(Cc3ccc4c(c3)CC4)c2)[C@H](O)[C@@H](O)C1(F)F [Compound 106]			41	26
COc1cc(OC)c([C@@H]2O[C@H](CO)C(F)(F)[C@H](O)[C@H]2O)cc1Cc1ccc2c(c1)CC2 [Compound 108]	27	1		
OC[C@H]1O[C@@H](c2ccc(Cl)c(C(F)(F)c3ccc4c(c3)CC4)c2)[C@H](O)[C@@H](O)[C@@H]1O [Compound 140]	50	2		
COc1cc(OC(F)F)c([C@@H]2O[C@H](CO)[C@@H](O)[C@H](O)[C@H]2O)cc1Cc1ccc2c(c1)CC2 [Compound 38, (2S,3R,4R,5S,6R)-2-(2-(difluoromethoxy)-5-((1,2-dihydrocyclobutabenzen-4-yl)methyl)-4-methoxyphenyl)-6-(hydroxymethyl)-tetrahydro-2H-pyran-3,4,5-triol]			20	78
CN(C)c1ccc([C@@H]2O[C@H](CO)[C@@H](O)[C@H](O)[C@H]2O)cc1Cc1ccc2c(c1)CC2 [Compound 21, (2S,3R,4R,5S,6R)-2-(3-(bicyclo[4.2.0]octa-1(6),2,4-trien-3-ylmethyl)-4-(dimethylamino)phenyl)-6-(hydroxymethyl)oxane-3,4,8-triol]			67	35
Cc1c(Cc2ccc3c(c2)CC3)cc([C@@H]2O[C@H](CO)[C@@H](O)[C@H](O)[C@H]2O)c(O)c1I [Compound 120]	14	7		
COc1cc(O)c([C@@H]2O[C@H](CO)[C@@H](O)[C@H](O)[C@H]2O)cc1Cc1ccc2c(c1)CC2 [Compound 10, (2S,3R,4R,5S,6R)-2-(5-((1,2-dihydrocyclobutabenzen-4-yl)methyl)-2-hydroxy-4-methoxyphenyl)-6-(hydroxymethyl)-tetrahydro-2H-pyran-3,4,5-triol]	5	1		
Cc1cc(OCF)c([C@@H]2O[C@H](CO)[C@@H](O)[C@H](O)[C@H]2O)cc1Cc1ccc2c(c1)CC2 [Compound 39, (2S,3R,4R,5S,6R)-2-(5-[bicyclo[4.2.0]octa-1(6),2,4-trien-3-ylmethyl]-2-(fluoromethoxy)-4-methylphenyl)-6-(hydroxymethyl)oxane-3,4,8-triol]	27	13		
[2H]C([2H])(c1ccc2c(c1)CC2)c1cc([C@@H]2O[C@H](CO)[C@@H](O)[C@H](O)[C@H]2O)ccc1C [Compound 51]	35	1		
OC[C@H]1O[C@@H](c2ccc(Cl)c(Cc3ccc4c(c3)CC4)c2)[C@H](O)[C@@H](O)[C@@H]1F [Compound 134]	36	2		
[2H]C1([2H])Cc2cc(Cc3cc([C@@H]4O[C@H](CO)[C@@H](O)[C@H](O)[C@H]4O)ccc3C)ccc21 [Compound 85, (2S,3R,4R,5S,6R)-(3-((1,1-dideuterium-1,2-dihydrocyclobutabenzen-4-yl)methyl)-4-methylphenyl)-6-(hydroxymethyl)-tetrahydro-2H-pyran-3,4,5-triol]	46	2		
[2H]C([2H])(c1ccc2c(c1)CC2)c1cc([C@@H]2O[C@H](CO)[C@@H](O)[C@H](O)[C@H]2O)c(O)cc1C (single isomer, unassigned) [Compound 52]	4	1		
OC[C@H]1O[C@@H](c2cc(Cc3ccc4c(c3)CC4)c(Cl)cc2OC2CC2)[C@H](O)[C@@H](O)[C@@H]1O [Compound 117]	50	2		
COc1cc(N(C)C)c(Cc2ccc3c(c2)CC3)cc1[C@@H]1O[C@H](CO)[C@@H](O)[C@H](O)[C@H]1O [Compound 23, (2S,3R,4R,5S,6R)-2-(5-((1,2-dihydrocyclobutabenzen-4-yl)methyl)-4-(dimethylamino)-2-methoxyphenyl)-6-(hydroxymethyl)-tetrahydro-2H-pyran-3,4,5-triol]			24	39
[2H]C1([2H])Cc2cc(Cc3cc([C@@H]4O[C@H](CO)[C@@H](O)[C@H](O)[C@H]4O)ccc3Cl)ccc21 (single isomer, unassigned) [Compound 81]	62	1		
COc1cc(OC)c([C@@H]2O[C@H](CO)[C@@H](F)[C@H](O)[C@H]2O)cc1Cc1ccc2c(c1)CC2 [Compound 136]	9	1		
CCOc1cc(C)c(Cc2ccc3c(c2)CC3)cc1[C@@H]1O[C@H](CO)[C@@H](F)[C@H](O)[C@H]1O [Compound 131]	49	1		
COc1cc(F)c([C@@H]2O[C@H](CO)[C@@H](O)[C@H](O)[C@H]2O)cc1Cc1ccc2c(c1)CC2 [Compound 31, (2S,3R,4R,5S,6R)-2-(5-((1,2-dihydrocyclobutabenzen-4-yl)methyl)-2-fluoro-4-methoxyphenyl)-6-(hydroxymethyl)-tetrahydro-2H-pyran-3,4,5-triol]	84	10		
